Results published in US11465998B2, “Therapeutic compounds and methods of use thereof” (Regents of the University of Minnesota, priority 2019, dated 2022).
Entries after “also recorded” stand apart in the source; their conditions may differ. Where two headings read alike, the source gives them in different places.

Experiments:
Format in all cases: cell-based
human whole blood = experiment: Cytokine/chemokine induction in human whole blood
[1] = system: human peripheral blood mononuclear cells (PBMCs); experiment: Multiplexed immunoassays for human cytokines in PBMCs
Protocol: (§1) Example 5: High-throughput screens in porcine blood: Curated compound collections were obtained from the Institute for Therapeutics Discovery & Development at the University of Minnesota. Compound transfers from source (80 nL of 10 mM stocks) to assay plates were performed using an Echo 550 acoustic liquid handler (Labcyte, Sunnyvale, Calif.). For most libraries, a target final concentration of 10 μM of compound (in a final volume of 80 μL for the assay described below) was achieved. Compound plates were hermetically sealed and stored at −80° C. until used. Fresh, heparin-anticoagulated porcine blood from healthy animals were obtained under USDA supervision from Midwest Research Swine, LLC (Glencoe, Minn.). 80 μL of hematocrit-enriched porcine blood (low-speed centrifugation, followed by resuspension in DMEM supplemented with 10% fetal bovine serum) was added to compound plates and incubated for 15 h. The following day, the plates were briefly centrifuged (100 g, 10 min), and supernatants were transferred using an automated ViaFlow 384 transfer device (Integra Biosciences Corp., Hudson, N.H.) to assay plates containing of 10^6 cells/mL of each of the following NF-κB/secreted alkaline phosphatase reporter cells suspended in HEK-Blue Detection Media: human IFN-α/β, human IFN-γ, human TNF-α/IL-1β (InvivoGen, San Diego, Calif.). NF-κB translocation was assayed spectrophotometrically using an alkaline phosphatase-specific chromogen (present in HEK-detection medium as supplied by InvivoGen) at 620 nm using a SpectraMax M4 multimode microplate reader (Molecular Devices, Sunnyvale, Calif.). Z′ factors were computed for each TLR/NOD-specific signals. Hits were defined as signals >4σ (in-plate standard deviations for test compounds above negative control means), were deconvoluted in full dose-response assays in human TLR-2/-3/-4/-5/-7/-8/-9 and NOD-1/NOD-2-specific reporter cells in liquid handler-assisted assay formats as described previously. Example 6: Murine knockout cell-lines: The following reagents were obtained through BEI Resources, NIAID, NIH: the microglial cell line derived from MAL/MyD88 double knockout Mice (NR-9904), and the macrophage cell line derived from TRIF/TRAM knockout mice (NR-9568). Example 7: Human NOD1/2-specific reporter gene assays (NF-κB induction), and TLR-2/-3/-4/-5/-7/-8/-9/STING/ISG counter-screens: The induction of NF-κB was quantified using human TLR-2/-3/-4/-5/-7/-8/-9/NOD-1/NOD-2/STING/ISG-specific, rapid-throughput, liquid handler-assisted reporter gene assays as previously described by us (Wu, W. et al. J. Med. Chem. 2010, 53, 3198-3213; Shukla, N. M. et al. J. Med. Chem. 2010, 53, 4450-4465; Agnihotri, G. et al. J. Med. Chem. 2011, 54, 1490-1510 and Ukani, R. et al. Bioorg. Med. Chem. Lett. 2012, 22, 293-295). […]

human NOD2 = target: T1, human NOD2 (Homo sapiens, UniProt Q9HC29); experiment: human NOD2 specific reporter gene assay (NF-κB induction)
T1 construct: host or cells: HEK293
T1 sequence (Q9HC29 whole entry): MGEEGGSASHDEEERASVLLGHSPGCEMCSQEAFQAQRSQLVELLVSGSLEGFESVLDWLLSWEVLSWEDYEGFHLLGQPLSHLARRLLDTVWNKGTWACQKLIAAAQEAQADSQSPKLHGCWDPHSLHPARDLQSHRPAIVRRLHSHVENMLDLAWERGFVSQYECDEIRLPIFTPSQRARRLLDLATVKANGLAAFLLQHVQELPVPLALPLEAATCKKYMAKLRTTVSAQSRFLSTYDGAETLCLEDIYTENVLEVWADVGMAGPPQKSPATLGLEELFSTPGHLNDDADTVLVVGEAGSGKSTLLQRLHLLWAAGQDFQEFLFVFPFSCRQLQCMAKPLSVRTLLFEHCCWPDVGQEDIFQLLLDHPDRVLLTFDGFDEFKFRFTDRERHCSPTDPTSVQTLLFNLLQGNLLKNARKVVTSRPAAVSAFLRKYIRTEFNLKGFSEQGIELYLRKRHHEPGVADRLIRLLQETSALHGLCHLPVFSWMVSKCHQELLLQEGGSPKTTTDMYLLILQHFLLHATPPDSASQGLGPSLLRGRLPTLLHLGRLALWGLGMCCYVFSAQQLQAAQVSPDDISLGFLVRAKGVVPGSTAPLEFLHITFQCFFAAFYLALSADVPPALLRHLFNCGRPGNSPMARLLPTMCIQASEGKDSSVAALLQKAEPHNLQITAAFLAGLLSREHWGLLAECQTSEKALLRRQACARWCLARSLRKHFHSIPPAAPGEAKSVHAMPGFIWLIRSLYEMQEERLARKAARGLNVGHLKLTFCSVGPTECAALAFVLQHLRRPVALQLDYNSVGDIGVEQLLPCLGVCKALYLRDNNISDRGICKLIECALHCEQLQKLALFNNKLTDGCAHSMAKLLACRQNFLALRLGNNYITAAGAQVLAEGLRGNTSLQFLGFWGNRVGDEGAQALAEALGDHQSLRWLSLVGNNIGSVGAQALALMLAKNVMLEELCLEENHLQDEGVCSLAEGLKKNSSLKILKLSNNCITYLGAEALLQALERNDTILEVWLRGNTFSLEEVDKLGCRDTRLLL
Protocol: as §1, with “293-295). HEK293 cells stably co-transfected with the appropriate hTLR and secreted alkaline phosphatase (sAP) were maintained in HEK-Blue™ Selection medium. Stable expression of secreted alkaline phosphatase (sAP) under control of NF-κB/AP-1/IRF promoters is inducible by appropriate innate immune stimuli, and extracellular sAP in the supernatant is proportional to NF-κB/IRF induction. Reporter cells were incubated at a density of ˜10^5 cells/ml in a volume of 80 μl/well, in 384-well, flat-bottomed, cell culture-treated microtiter plates in the presence of graded concentrations of stimuli. sAP was assayed spectrophotometrically using an alkaline phosphatase-specific chromogen (present in HEK-detection medium as supplied by InvivoGen) at 620 nm. Example 8: Multiplexed immunoassays for human cytokines: Fresh human peripheral blood mononuclear cells (hPBMC) were isolated from human blood obtained by venipuncture in Cell Preparation Tubes (CPT, Beckton-Dickinson) with informed consent and as per guidelines approved by the University of Minnesota Human Subjects Experimentation Committee. Aliquots of PBMCs or THP-1 cells (10^5 cells in 100 μL/well) were stimulated for 16 h with graded concentrations of test compounds.” for “293-295).”

[2] = human NOD2 reporter gene assay, read-out: EC50 values, human NOD2 agonistic potency
[3] = human NOD2 specific reporter gene assay, arithmetic mean of quadruplicate samples, NA* indicates inactive under the tested conditions, read-out: hNOD2 Agonistic Activity (μM), EC50

SMILES | induction of cytokines and chemokines (human whole blood) | induction of chemokines and cytokines [1] | EC50 (human NOD2; [2]) [µM] | EC50 (human NOD2; [3]) [µM]
CCCCCc1nc2ccccc2n1-c1csc(C(N)=O)c1 [Compound 7e, 4-(2-Pentyl-1H-benzo[d]imidazol-1-yl)thiophene-2-carboxamide] | None of the small molecules (including 1, as well as the optimized, equipotent analogues 7e and 7f) showed any activity | None of the small molecules (including 1, as well as the optimized, equipotent analogues 7e and 7f) showed any activity; also recorded: absence of induction of chemokines and cytokines | 0.68 | 0.684
CCCCCCc1nc2ccccc2n1-c1csc(C(N)=O)c1 [Compound 7f, 4-(2-Hexyl-1H-benzo[d]imidazol-1-yl)thiophene-2-carboxamide] | None of the small molecules (including 1, as well as the optimized, equipotent analogues 7e and 7f) showed any activity | None of the small molecules (including 1, as well as the optimized, equipotent analogues 7e and 7f) showed any activity; also recorded: essentially identical to that of 7e | 0.66 | 0.664
